For 39 compounds, IC50 results are on record in patent publication US20250034110A1, “LPAR1 ANTAGONISTS AND USES THEREOF” (Pipeline Therapeutics, Inc., priority 2021, published 2025).

Where two headings read alike, the source gives them in different places.

The assay concerns the target human LPAR1 (Homo sapiens, UniProt Q92633). In words: In vitro functional assay of lysophosphatidic acid receptor 1 activity (calcium flux). The assay is classed as cell-based.
The mark [1] stands for this setting: B103 cells stably expressing human LPAR1, calcium flux (Fluo-4 NW) after lysophosphatidic acid (18:1) at EC80, 100 pM to 10 μM, read-out: LPAR1 IC50.

Chain of human LPAR1 (Q92633 whole entry): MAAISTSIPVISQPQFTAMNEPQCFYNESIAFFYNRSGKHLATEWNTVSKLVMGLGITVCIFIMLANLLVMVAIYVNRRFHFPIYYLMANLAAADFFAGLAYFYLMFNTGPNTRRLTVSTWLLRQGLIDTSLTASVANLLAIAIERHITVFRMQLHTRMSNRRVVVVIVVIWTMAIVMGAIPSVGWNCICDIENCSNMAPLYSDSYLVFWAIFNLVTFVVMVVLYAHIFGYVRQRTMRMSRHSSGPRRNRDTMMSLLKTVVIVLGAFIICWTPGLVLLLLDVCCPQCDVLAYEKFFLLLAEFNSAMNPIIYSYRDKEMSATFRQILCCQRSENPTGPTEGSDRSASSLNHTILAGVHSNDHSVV

As for `Cc1ccc(NC(=O)N(CC2COC2)c2ccccc2C(C)C)c(OC(F)F)n1` [Example 15, 3-(2-(difluoromethoxy)-6-methylpyridin-3-yl)-1-(2-isopropylphenyl)-1-(oxetan-3-ylmethyl)urea], the IC50 under setting [1] lay in the range of 10 to 100 nM.
Same read-out and setting: in the case of `Cc1ccc(NC(=O)N(c2ccccc2C(C)C)C2CCC(=O)N(C)C2)c(OC(F)F)n1` (stereo not drawn) [Example 4, 3-(2-(difluoromethoxy)-6-methylpyridin-3-yl)-1-(2-isopropylphenyl)-1-(1-methyl-6-oxopiperidin-3-yl)urea] it was 10 to 100 nM; in that of `CC(C)Oc1cc(C(F)F)ncc1NC(=O)N(c1ccccc1C(C)C)[C@H]1CC[C@H](C(=O)O)CC1` [Example 295, (1r,4r)-4-(3-(6-(difluoromethyl)-4-isopropoxypyridin-3-yl)-1-(2-isopropylphenyl)ureido)cyclohexane-1-carboxylic acid], 100 to 1000 nM; in that of `Cc1ccc(NC(=O)N(c2ccccc2C(C)C)[C@@H]2CCC(=O)N(C)C2)c(OC(F)F)n1` [Example 5, (R)-3-(2-(difluoromethoxy)-6-methylpyridin-3-yl)-1-(2-isopropylphenyl)-1-(1-methyl-6-oxopiperidin-3-yl)urea], 10 to 100 nM.
For the compound `Cc1ccc(NC(=O)N(c2ccccc2C(C)C)[C@H]2C[C@@H](CC(N)=O)C2)c(OC(F)F)n1` [Example 189], under setting [1], the IC50 was 100 to 1000 nM.
As to `Cc1ccc(NC(=O)N(c2ccccc2C(C)C)[C@H]2CC[C@@H](C(F)F)CC2)c(OC(F)F)n1` [Example 245, 3-(2-(difluoromethoxy)-6-methylpyridin-3-yl)-1-((1s,4s)-4-(difluoromethyl)cyclohexyl)-1-(2-isopropylphenyl)urea], under setting [1], the IC50 is more than 1000 nM.
Take `Cc1ccc(NC(=O)N(c2ccccc2C(C)C)C2CCC3(CC2)COC3)c(OC(F)F)n1` [Example 236, 3-(2-(difluoromethoxy)-6-methylpyridin-3-yl)-1-(2-isopropylphenyl)-1-(2-oxaspiro[3.5]nonan-7-yl)urea]: under setting [1], the IC50 is 100 to 1000 nM.
For `COc1ccc(NC(=O)N(c2ccccc2C(C)C)[C@H]2CC[C@H](C(=O)O)CC2)c(O)n1` [Example 254], the IC50 under setting [1] is more than 1000 nM.
In the case of `CC(=O)N1CC(N(C(=O)Nc2ccc(C)cc2OC(F)F)c2ccccc2C(C)C)C1` [Example 117, 1-(1-acetylazetidin-3-yl)-3-(2-(difluoromethoxy)-4-methylphenyl)-1-(2-isopropylphenyl)urea], the IC50 under setting [1] was 10 to 100 nM.
Consider `Cc1ccc(NC(=O)N(c2ccccc2C(C)C)C2CC2)c(OC(F)F)n1` [Example 13, 1-cyclopropyl-3-(2-(difluoromethoxy)-6-methylpyridin-3-yl)-1-(2-isopropylphenyl)urea], for which, under setting [1], the IC50 is more than 1000 nM.
Turning to `Cc1ccc(NC(=O)N(C[C@H]2CC[C@@H](C(=O)O)CC2)c2ccccc2C(C)C)c(OC(F)F)n1` [Example 172], the IC50 under setting [1] was in the range of 10 to 100 nM.
For `COc1ccc(NC(=O)N(c2ccccc2C(C)C)C2CCN(C(N)=O)CC2)c(OC(F)F)n1` [Example 65, 4-(3-(2-(difluoromethoxy)-6-methoxypyridin-3-yl)-1-(2-isopropylphenyl)ureido)piperidine-1-carboxamide], the IC50 (LPAR1 IC50) was 10 to 100 nM.
On to `CC(C)(C)c1ccccc1N(C(=O)Nc1ncc(Br)cc1OC(F)F)C1CCC(C(=O)O)CC1` (stereo not drawn) [Example 273], for which the 50% inhibitory concentration (IC50) under setting [1] lay in the range of 10 to 100 nM.
For the compound `Cc1ccc(NC(=O)N(c2ccccc2C(C)C)[C@H]2C[C@H](OCc3ccccc3)C2)c(OC(F)F)n1` [Example 23, 1-((1r,3r)-3-(benzyloxy)cyclobutyl)-3-(2-(difluoromethoxy)-6-methylpyridin-3-yl)-1-(2-isopropylphenyl)urea], the IC50 under setting [1] lay within 100 to 1000 nM.
Same read-out and setting: in the case of `Cc1ccc(NC(=O)N(c2ccccc2C(C)C)[C@H]2CC[C@H](S(C)(=O)=O)CC2)c(OC(F)F)n1` [Example 256, 3-(2-(difluoromethoxy)-6-methylpyridin-3-yl)-1-(2-isopropylphenyl)-1-((1r,4r)-4-(methylsulfonyl)cyclohexyl)urea] it was 100 to 1000 nM; in that of `COc1ccc(NC(=O)N(c2ccccc2C(C)C)[C@H]2CC[C@@](O)(C(F)(F)C(=O)O)CC2)c(OC(F)F)n1` [Example 321, 2-((1r,4r)-4-(3-(2-(difluoromethoxy)-6-methoxypyridin-3-yl)-1-(2-isopropylphenyl)ureido)-1-hydroxycyclohexyl)-2,2-difluoroacetic acid], less than 10 nM.
`CC(=O)N1C[C@@H]2[C@H](C1)[C@H]2N(C(=O)Nc1ccc(C)nc1OC(F)F)c1ccccc1C(C)C` [Example 69, 1-((1R,5S,6s)-3-acetyl-3-azabicyclo[3.1.0]hexan-6-yl)-3-(2-(difluoromethoxy)-6-methylpyridin-3-yl)-1-(2-isopropylphenyl)urea]: the IC50 (LPAR1 IC50) lay within 100 to 1000 nM.
The same measure, in the same setting: in the case of `CCOc1nc(C)ccc1NC(=O)N(c1ccccc1C(C)C)C1CCN(C(C)=O)CC1` [Example 105] it was 100 to 1000 nM.
Regarding `Cc1ccc(NC(=O)N(c2ccccc2C(C)C)C2CC3(CC(C(=O)O)C3)C2)c(OC(F)F)n1` (stereo not drawn) [Example 229], the IC50 under setting [1] lay within 10 to 100 nM.
With `Cc1ccc(NC(=O)N(c2ccccc2C(C)C)C2CC3(C2)CN(C(=O)NC2CC2)C3)c(OC(F)F)c1` [Example 126], the IC50 under setting [1] was in the range of 10 to 100 nM.
In the case of `COc1ccc(NC(=O)N(c2ccccc2C(C)C)C2CCN(C(C)=O)CC2)c(OC(F)F)n1` [Example 86, 1-(1-acetylpiperidin-4-yl)-3-(2-(difluoromethoxy)-6-methoxypyridin-3-yl)-1-(2-isopropylphenyl)urea], where the note is “LPAR1 IC50”, the concentration for half-maximal inhibition (IC50) was in the range of 10 to 100 nM.
Still for that read-out and setting: as for `COc1ccc(NC(=O)N(c2ccccc2C(C)C)C2C3CC2CN(C(C)=O)C3)c(OC(F)F)n1` (stereo not drawn) [Example 53, 1-(3-acetyl-3-azabicyclo[3.1.1]heptan-6-yl)-3-(2-(difluoromethoxy)-6-methoxypyridin-3-yl)-1-(2-isopropylphenyl)urea], the figure is 100 to 1000 nM.
`COc1ccc(NC(=O)N(c2ccccc2C(C)C)[C@H]2CC[C@](O)(C(F)(F)C(=O)O)CC2)c(OC(F)F)n1` [Example 322, 2-((1s,4s)-4-(3-(2-(difluoromethoxy)-6-methoxypyridin-3-yl)-1-(2-isopropylphenyl)ureido)-1-hydroxycyclohexyl)-2,2-difluoroacetic acid]: the IC50 under setting [1] is less than 10 nM.
As for `Cc1ccc(NC(=O)N(c2ccccc2C(C)C)[C@H]2C[C@H](O)C2)c(OC(F)F)n1` [Example 181], under setting [1], the IC50 lay in the range of 10 to 100 nM.
On to `Cc1ccc(NC(=O)N(c2ccccc2C(C)C)C2CN(CCC3(C(=O)O)CCC3)C2)c(OC(F)F)n1` [Example 174], for which the IC50 under setting [1] lay within 100 to 1000 nM.
Same read-out and setting: as for `Cc1ccc(NC(=O)N(c2ccccc2C(C)C)[C@H]2C[C@H](CC(N)=O)C2)c(OC(F)F)n1` [Example 188], the figure is 100 to 1000 nM.
`CC(C)c1ccccc1N(C(=O)Nc1ncc(Br)cc1OC(F)F)C1CC(CC(=O)O)C1` (stereo not drawn) [Example 176]: the IC50 under setting [1] lay in the range of 10 to 100 nM.
The same measure, in the same setting: in the case of `Cc1ccc(NC(=O)N(c2ccccc2C(C)C)[C@H]2CCN(C(=O)Cn3nccn3)C2)c(OC(F)F)n1` [Example 83, (S)-1-(1-(2-(2H-1,2,3-triazol-2-yl)acetyl)pyrrolidin-3-yl)-3-(2-(difluoromethoxy)-6-methylpyridin-3-yl)-1-(2-isopropylphenyl)urea] it was 100 to 1000 nM.
The same measure, in the same setting: in the case of `Cc1ccc(NC(=O)N(c2ccccc2C(C)C)C2(C)COC2)c(OC(F)F)n1` [Example 3, 3-(2-(difluoromethoxy)-6-methylpyridin-3-yl)-1-(2-isopropylphenyl)-1-(3-methyloxetan-3-yl)urea] it was 100 to 1000 nM; in that of `COc1ccc(NC(=O)N(c2ccccc2C(C)C)C2CCN(C)C(=O)C2)c(OC(F)F)n1` (stereo not drawn) [Example 44, 3-(2-(difluoromethoxy)-6-methoxypyridin-3-yl)-1-(2-isopropylphenyl)-1-(1-methyl-2-oxopiperidin-4-yl)urea], 10 to 100 nM; in that of `COc1ccc(NC(=O)N(c2ccccc2C(C)C)C2CN(C(C)=O)C2)c(OC)n1` [Example 118], 100 to 1000 nM.
Still for that read-out and setting: as for `Cc1ccc(NC(=O)N(c2ccccc2C(C)C)[C@H]2CC[C@H](C(=O)O)CC2)c(OCCF)n1` [Example 338, (1r,4r)-4-(3-(2-(2-fluoroethoxy)-6-methylpyridin-3-yl)-1-(2-isopropylphenyl)ureido)cyclohexane-1-carboxylic acid], the figure is 10 to 100 nM; as for `COc1ccc(NC(=O)N(c2ccccc2C(C)(C)F)[C@H]2CC[C@H](C(=O)O)CC2)c(OC(F)F)n1` [Example 278, (1r,4r)-4-(3-(2-(difluoromethoxy)-6-methoxypyridin-3-yl)-1-(2-(2-fluoropropan-2-yl)phenyl)ureido)cyclohexane-1-carboxylic acid], 10 to 100 nM.
As to `Cc1ccc(NC(=O)N(c2ccccc2C(C)C)[C@H]2[C@@H]3CN(C(=O)OC(C)(C)C)C[C@@H]32)c(OC(F)F)n1` [Example 9, tert-butyl (1R,5S,6s)-6-(3-(2-(difluoromethoxy)-6-methylpyridin-3-yl)-1-(2-isopropylphenyl)ureido)-3-azabicyclo[3.1.0]hexane-3-carboxylate], the IC50 (LPAR1 IC50) was more than 1000 nM.
`COc1ccc(NC(=O)N(c2ccccc2C2CC2)[C@H]2CC[C@H](C(=O)O)CC2)c(OC(F)F)n1` [Example 275]: the IC50 under setting [1] fell in the range of 10 to 100 nM.
As for `Cc1ccc(NC(=O)N(c2ccccc2C(C)C)[C@H]2CCN(S(C)(=O)=O)C2)c(OC(F)F)n1` [Example 75, (S)-3-(2-(difluoromethoxy)-6-methylpyridin-3-yl)-1-(2-isopropylphenyl)-1-(1-(methylsulfonyl)pyrrolidin-3-yl)urea], the IC50 under setting [1] fell in the range of 10 to 100 nM.
As for `COc1ccc(NC(=O)N(c2ccccc2C(C)C)[C@H]2CC[C@H](C(=O)O)CC2)c(OCc2ccccc2)n1` [Example 253, (1r,4r)-4-(3-(2-(benzyloxy)-6-methoxypyridin-3-yl)-1-(2-isopropylphenyl)ureido)cyclohexane-1-carboxylic acid], under setting [1], the IC50 is 10 to 100 nM.
The same measure, in the same setting: in the case of `COC(=O)N1CC(N(C(=O)Nc2ccc(C)nc2OC(F)F)c2ccccc2C(C)C)C1` [Example 77, methyl 3-(3-(2-(difluoromethoxy)-6-methylpyridin-3-yl)-l-(2-isopropylphenyl)ureido)azetidine-1-carboxylate] it was 10 to 100 nM.
Consider `COc1ccc(NC(=O)N(c2ccccc2C(C)C)[C@H]2C[C@@H](CC(=O)O)C2)c(OCC(F)F)n1` [Example 332], for which the IC50 under setting [1] lay in the range of 10 to 100 nM.
